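Cells were grown in 96-well plates and exposed to each compound for 48 hours at five concentrations; endpoints were interpolated linearly between bracketing concentrations, or set to the highest concentration if not reached. GI50 is the concentration that inhibits growth by half.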 Active and inactive are the calls of the source. Cut-off read from the data, not from the text of the source: active = GI50 up to about 1.1 µM and inactive = higher.
What was measured:
Experiment in all cases: inhibition of tumour cell growth, NCI panel, 48 h
LXFL 529 = tested on: LXFL 529
XF498 = tested on: XF498
DMS-273 = tested on: DMS-273
HOP-18 = tested on: HOP-18
KM-20L2 = tested on: KM-20L2
M19-MEL = tested on: M19-MEL
DMS-114 = tested on: DMS-114
RXF 631 = tested on: RXF 631
SNB-78 = tested on: SNB-78

Measured: GI50

N#Cc1c(-c2ccccc2)c(-c2ccccc2)cc2c(=O)c3ccc(Cl)cc3[nH]c12
inactive: LXFL 529 > 100 µM | XF498 > 100 µM | DMS-273 > 100 µM | HOP-18 > 100 µM | KM-20L2 > 100 µM | M19-MEL > 100 µM

Oc1ccc2c(c1)OCC1(O)Cc3cc(O)c(O)cc3C21 (configuration not stated)
inactive: LXFL 529 18.5 µM | DMS-114 26.7 µM | RXF 631 41 µM | XF498 15.2 µM | DMS-273 35.8 µM | HOP-18 18.3 µM | KM-20L2 38.3 µM | SNB-78 14.7 µM | M19-MEL 29.1 µM

O=C1[C@@H]2C3c4ccccc4C([C@@H]2C(=O)N1c1ccccc1)S3(=O)=O
inactive: LXFL 529 > 100 µM | DMS-114 37.9 µM | RXF 631 26.8 µM | XF498 > 100 µM | DMS-273 > 100 µM | HOP-18 > 100 µM | KM-20L2 > 100 µM | SNB-78 > 100 µM | M19-MEL > 100 µM

CCOC(=O)C12CCCC1(O)N(NC(N)=O)C(C)=C2C(=O)OC (configuration not stated)
inactive: LXFL 529 > 100 µM | DMS-114 > 100 µM | RXF 631 > 100 µM | XF498 > 100 µM | DMS-273 > 100 µM | HOP-18 > 100 µM | KM-20L2 > 100 µM | SNB-78 > 100 µM | M19-MEL > 100 µM

O=C(N/C(=C\c1ccc(Cl)cc1)c1nc2ccccc2[nH]1)c1ccccc1
inactive: LXFL 529 15.3 µM | XF498 18.6 µM | DMS-273 21.1 µM | HOP-18 13.7 µM | KM-20L2 2.44 µM | SNB-78 29.3 µM | M19-MEL 19 µM

COc1ccc(C(=O)C(c2ccc(OCc3ccccc3)cc2)c2ccc(OCc3ccccc3)cc2)cc1
inactive: DMS-114 > 100 µM | RXF 631 2.67 µM | XF498 > 100 µM | DMS-273 > 100 µM | KM-20L2 > 100 µM | SNB-78 > 100 µM | M19-MEL > 100 µM

COc1ccc2[nH]cc(CCNC(=O)[C@](O)(Cc3cn(C)c4ccccc34)[C@@]3(O)OCC(O)C3O)c2c1 (some centres not stated)
inactive: LXFL 529 67.8 µM | DMS-114 35.6 µM | RXF 631 > 100 µM | XF498 90.6 µM | DMS-273 > 100 µM | HOP-18 > 100 µM | KM-20L2 > 100 µM | M19-MEL > 100 µM

Cc1cc(O)nc(CNC(=O)c2ccc3ccccc3c2)n1
inactive: LXFL 529 > 100 µM | DMS-114 > 100 µM | RXF 631 > 100 µM | XF498 > 100 µM | DMS-273 > 100 µM | HOP-18 > 100 µM | KM-20L2 > 100 µM | M19-MEL > 100 µM

O=C(CC1(O)C(=O)Nc2c(Cl)ccc(Cl)c21)c1ccco1 (configuration not stated)
inactive: LXFL 529 14 µM | DMS-114 18 µM | RXF 631 26.4 µM | XF498 11.9 µM | DMS-273 34.6 µM | HOP-18 > 100 µM | KM-20L2 37.8 µM | SNB-78 51.8 µM | M19-MEL 2.31 µM

CCOC(=O)NC/C=C/COC1CCCCO1 (configuration not stated)
inactive: LXFL 529 > 100 µM | DMS-114 > 100 µM | DMS-273 > 100 µM | HOP-18 > 100 µM | KM-20L2 > 100 µM | SNB-78 > 100 µM | M19-MEL > 100 µM

CC1=CCC23C(C1)OC(Br)(C=CC2(C)O)C3(C)C (configuration not stated)
inactive: DMS-114 > 100 µM | XF498 > 100 µM | DMS-273 > 100 µM | HOP-18 > 100 µM | SNB-78 > 100 µM | M19-MEL > 100 µM

CCCCCCCC(=O)OCC1OC(OC)C(NC(=O)N(CCCl)N=O)C(O)C1O (configuration not stated)
inactive: LXFL 529 16.9 µM | DMS-114 11.9 µM | RXF 631 2.48 µM | XF498 10.2 µM | DMS-273 2.9 µM | HOP-18 18.5 µM | KM-20L2 20.8 µM | SNB-78 22.9 µM | M19-MEL 17.9 µM

CC(=O)OC1CC2CCN3C(=O)c4cc5c(cc4[C@H](C1OC(C)=O)C23)OCO5 (some centres not stated)
inactive: LXFL 529 > 100 µM | DMS-273 > 100 µM | KM-20L2 > 100 µM | SNB-78 > 100 µM | M19-MEL > 100 µM

O=C1CC[C@H](NC(=O)Cc2ccccc2)C(=O)N1 [ANTINEOPLASTON A10]
inactive: LXFL 529 > 1250 µM | XF498 > 1250 µM | DMS-273 > 1250 µM | HOP-18 > 1250 µM | KM-20L2 > 1250 µM | M19-MEL > 1250 µM

Nc1ccccc1C(=O)/C=C/c1c(O)ccc2ccccc12
inactive: LXFL 529 > 100 µM | DMS-114 > 100 µM | RXF 631 > 100 µM | DMS-273 > 100 µM | HOP-18 > 100 µM | KM-20L2 > 100 µM | SNB-78 > 100 µM | M19-MEL 19.4 µM

Nc1ccc2nc(Nc3ccc(F)cc3)cnc2c1
inactive: DMS-114 34.4 µM | XF498 > 100 µM | DMS-273 > 100 µM | M19-MEL > 100 µM

CCN1C2=NC(=O)N(C)C(=O)C2(Cl)C(C(SC)S(=O)(=O)c2ccc(C)cc2)c2ccccc21 (configuration not stated)
inactive: LXFL 529 23.3 µM | DMS-114 41.1 µM | RXF 631 21.4 µM | XF498 49.5 µM | DMS-273 31.6 µM | KM-20L2 57.8 µM | SNB-78 24.2 µM | M19-MEL 24.7 µM

COC(=O)c1cc2c(=O)n(C)c3ccccc3n2c1C(=O)OC
inactive: LXFL 529 > 100 µM | DMS-114 > 100 µM | RXF 631 > 100 µM | XF498 20.4 µM | DMS-273 51.6 µM | KM-20L2 53.3 µM | SNB-78 > 100 µM | M19-MEL > 100 µM

C=CCC12CCC(=O)[C@@]1(C)CC=C(O)C2=O (some centres not stated)
inactive: LXFL 529 > 100 µM | DMS-114 > 100 µM | DMS-273 > 100 µM | HOP-18 > 100 µM | KM-20L2 > 100 µM | SNB-78 > 100 µM | M19-MEL > 100 µM

N#Cc1ccc(Cc2ccccn2)cc1Cl
inactive: LXFL 529 > 100 µM | DMS-114 > 100 µM | RXF 631 > 100 µM | DMS-273 > 100 µM | HOP-18 > 100 µM | SNB-78 > 100 µM | M19-MEL > 100 µM

Cc1cc([N+](=O)[O-])c(C)c2c1[nH]c1ccc(O)cc12
inactive: DMS-114 66.4 µM | XF498 > 100 µM | DMS-273 > 100 µM | HOP-18 55.1 µM | SNB-78 > 100 µM | M19-MEL > 100 µM

COc1ccc2c(c1)O[C@@H]1c3ccc(OC)cc3OC[C@H]21
inactive: LXFL 529 28.8 µM | DMS-114 27.5 µM | XF498 25.6 µM | DMS-273 14.1 µM | SNB-78 33.8 µM | M19-MEL 31.4 µM

COc1cc2c(c(O)c1O)-c1ccc(OC)c(=O)cc1C(NC(C)=O)CC2 (configuration not stated)
inactive: LXFL 529 5.25 µM | RXF 631 38 µM | XF498 6.18 µM | DMS-273 5.07 µM | HOP-18 > 22.1 µM | KM-20L2 3.8 µM | SNB-78 4.54 µM | M19-MEL 6.98 µM

COc1ccc(/C=C2\C(=O)Nc3ccccc32)cc1OC
inactive: LXFL 529 58.1 µM | XF498 > 100 µM | DMS-273 64.7 µM | HOP-18 > 100 µM | KM-20L2 > 100 µM | SNB-78 37.7 µM

BrCc1ccc2ccc3ccc(CBr)nc3c2n1
inactive: LXFL 529 1.75 µM | DMS-114 3.85 µM | DMS-273 1.77 µM | HOP-18 1.83 µM | KM-20L2 3.28 µM | SNB-78 2.13 µM | M19-MEL 3.86 µM

COC(=O)C1C=CCON2CCc3c(n(S(=O)(=O)c4ccccc4)c4ccccc34)C12 (configuration not stated)
inactive: LXFL 529 73.8 µM | DMS-114 41.2 µM | DMS-273 48.8 µM | HOP-18 64.6 µM | KM-20L2 42.1 µM | SNB-78 > 100 µM | M19-MEL 40.6 µM

— ChEMBL document CHEMBL1201862, “PubChem BioAssay data set” (2004)
